Entries after “also recorded” stand apart in the source; their conditions may differ.
What was measured:
[1] = tested on: CD40-expressing target cells; test: ADCC activity of anti-CD40 antibodies (Table 1); type: cell-based
[2] = molecular target: soluble CD40 (Homo sapiens, UniProt P25942); test: ELISA-type binding to soluble CD40; conditions: ELISA-type assays
Excerpt: (§1) 2, 2000, and PCT International Application No. PCT/US01/30857, also titled “Human Anti-CD40 Antibodies,” filed Oct. 2, 2001, both of which are herein incorporated by reference in their entirety.

[3] = molecular target: cell-surface CD40 (Homo sapiens, UniProt P25942); test: Flow cytometric CD40-ligand binding blockade and displacement; conditions: flow cytometric assays / FACS
cell-surface CD40, sequence (P25942 21-277): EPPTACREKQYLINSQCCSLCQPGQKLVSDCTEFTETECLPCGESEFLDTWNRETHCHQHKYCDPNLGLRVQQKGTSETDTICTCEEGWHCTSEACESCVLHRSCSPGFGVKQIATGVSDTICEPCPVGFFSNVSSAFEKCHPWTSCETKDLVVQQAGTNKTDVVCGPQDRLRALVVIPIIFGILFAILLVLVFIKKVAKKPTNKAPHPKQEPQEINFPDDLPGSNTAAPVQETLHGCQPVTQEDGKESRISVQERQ
Excerpt: as §1
(§2) 4, 2003, Nov. 26, 2003, and Apr. 27, 2004, and assigned U.S. Patent Application Nos. 60/517,337, 60/525,579, and 60/565,710, respectively, and International Patent Application No. PCT/US2004/037152, also entitled “Antagonist, Anti-CD40 Monoclonal Antibodies and Methods for Their Use,” filed Nov. 4, 2004; the contents of each of which are herein incorporated by reference in their entirety.

[4] = tested on: B cells from normal human subjects; test: In vitro CD40 ligand-mediated proliferation of normal B cells; type: cell-based
Excerpt: as §1, §2

[5] = tested on: cancer cells from NHL and CLL patients; test: In vitro CD40 ligand-mediated proliferation of patient cancer cells; type: cell-based, human
Excerpt: as §2

[6] = tested on: B-CLL cells from patients; test: Western blot of apoptosis and survival biomarkers in sCD40L-stimulated B-CLL cells; type: cell-based, human
Protocol: In these experiments, 1.0×10^6 B-CLL cells from patients were stimulated with 1 μg/ml sCD40L (Alexis Corporation, Bingham, Noffinghamshire, UK). […] Cleaved PARP, which is a biomarker of apoptosis, and Bcl-xl, Bcl-2, and cIAP1, which are biomarkers of survival, were detected in cell lysates by Western blot analysis using commercially available antibodies specific for these biomarkers.
In these experiments, 1.0×10^6B-CLL cells from patients were stimulated with 1 μg/ml sCD40L (Alexis Corp., Bingham, Nottinghamshire, UK). […] Cells were collected at 22-24 hours. Western blot analysis with antibodies to cleaved PARP, caspase-3, and Bcl-xl were conducted on cell lysates. Antibody against β-actin was used for detecting equal loading and transfer efficiency.

[7] = tested on: B-CLL cells from patients; test: Western blot of CD40L-mediated signaling (p-IKK α/β, p-ERK, p-Akt, p-p38) in B-CLL cells; type: cell-based, human; conditions: 10 μg/ml
Protocol: In these experiments, 1.0×10^6 B-CLL cells from patients were stimulated with 1 μg/ml sCD40L (Alexis Corporation, Bingham, Nottinghamshire, UK). […] Cells were collected at 0 and 20 minutes. Phosphorylated IKKα (Ser180) and IKK β (Ser 181) (p-IKK α/β; NFkB pathway), phosphorylated ERK (p-ERK), phosphorylated Akt (p-Akt), and phosphorylated p38 MAPK (p-p38) were detected in cell lysates by Western blot.

[8] = tested on: B-CLL cells from patients; test: Western blot of apoptosis markers in B-CLL cells not stimulated with CD40L; type: cell-based, human; conditions: 10 μg/ml; 1, 4 and 24 hours; no CD40L
Protocol: Cells were collected at 1, 4, and 24 hours. Western blot analysis with antibodies to cleaved PARP (apoptotic protein) and XIAP (anti-apoptotic protein) was conducted on cell lysates.

[9] = tested on: B-CLL cells from patients; test: Flow cytometry of cleaved PARP and TUNEL in B-CLL cells; type: cell-based, human; conditions: 10 μg/ml with 1 μg/ml sCD40L, 24 hours
Protocol: In this experiment, 0.4×10^6B-CLL cells from patients were stimulated with 1 μg/ml sCD40L (Alexis Corp., Bingham, Nottinghamshire, UK). CHIR12.12 (10 μg/ml) or control IgG was then added. […] After fixation and permeabilization, the cells were stained for cleaved PARP and TUNEL methods.

[10] = tested on: B-CLL cells; test: p38 MAPK signaling in B-CLL cells, four-hour experiment; type: cell-based, human; conditions: 4 hours
Protocol: In the four-hour experiment, approximately 0.8×10^6 B-CLL cells per well were serum starved in 1% FBS-containing media for 4 hours. […] Cell lysates were collected before and 20 minutes after CD40L stimulation. Western blot analysis with antibodies against specific proteins shown were conducted, and equal loading was evaluated by probing with antibodies to total p38 (t-p38) and β-actin.

[11] = tested on: B-CLL cells; test: p38 MAPK signaling and survival in B-CLL cells, 24-hour experiment; type: cell-based, human
Protocol: In the 24-hour experiment, approximately 0.8×10^6 B-CLL cells per well were placed in full serum (10% FBS)-containing media for 24 hours. […] Western blot analysis with antibodies against specific proteins shown was conducted, and equal loading was evaluated by probing with antibodies against β-actin.

[12] = tested on: CLL patient samples; test: p-p38 status in multiple B-CLL patient samples; type: cell-based, human; conditions: CLL patients with high or low basal p-p38; CD40L stimulation
Excerpt: Patients with low basal p-p38 activity have a higher induction of phosphorylation by CD40L stimulation than patients with a higher basal expression.

[13] = tested on: IM-9 tumor cells (a human multiple myeloma cell line); test: IM-9 multiple myeloma subcutaneous xenograft model; type: in vivo, SCID mice
Protocol: SCID mice were inoculated subcutaneously with IM-9 tumor cells (a human multiple myeloma cell line expressing both CD40 and CD20) in 50% […]™ at 5×10^6 cells per mouse. […] Alternatively, bortezomib dosing at 1 mg/kg intravenously occurred on days 5, 8, 12, and 15 after tumor implantation. […] Antibody dosing occurred on days 8, 14, and 21 post tumor implantation, while bortezomib dosing occurred on days 8, 11, 14 and 18 post tumor implantation. […] Data were analyzed using the log-rank test.

[14] = tested on: normal B cells; test: CD40L-induced production of VEGF in normal B cells; type: cell-based, human
Excerpt: In another experiment, CD40L-induced production of VEGF in normal B cells and CLL cells obtained from patients with CLL is examined in a manner similar to that described above.

[15] = tested on: B-CLL cells; test: CellTiter-Glo viability of CLL patient PBMCs; type: cell-based, human; conditions: 72 hours, 10 μg/ml
Protocol: Cell viability was determined after 72 hours using the CellTiter-Glo® Luminescent Cell Viability Kit (Promega, Madison, Wis.), which measures cellular ATP, and expressed as Relative Luminescence Units (RLU). Percent blockade was calculated as follows: […]

[16] = patients #4 and #21, 10 μg/ml, 24 hours, 1 μg/ml sCD40L

soluble CD40, sequence (P25942 21-193 limits assumed): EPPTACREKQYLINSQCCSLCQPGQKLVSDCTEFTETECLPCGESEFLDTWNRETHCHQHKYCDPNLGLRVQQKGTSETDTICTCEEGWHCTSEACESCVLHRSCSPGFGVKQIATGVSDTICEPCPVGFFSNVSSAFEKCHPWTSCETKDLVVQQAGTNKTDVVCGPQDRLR

Substance: CHIR-12.12: fully human anti-CD40 monoclonal antibody of the IgG1 isotype from hybridoma cell line 153.8E2.D10.D6.12.12 (ATCC PTA-5543)
- killing of CD40-expressing target cells by ADCC [1]: able to kill CD40-expressing target cells
- binding to soluble CD40 [2]: bind soluble CD40
- displacement of pre-bound CD40-ligand [3]: displace the pre-bound CD40-ligand; also recorded: can compete off CD40-ligand pre-bound to cell surface CD40
- prevention of CD40-ligand binding to cell-surface CD40 [3]: prevent the binding of CD40-ligand to cell-surface CD40; also recorded: can prevent CD40-ligand binding
- effect on proliferation of normal B cells [4]: act as antagonist anti-CD40 antibodies; also recorded: inhibit in vitro CD40 ligand-mediated proliferation of normal B cells
- effect on CD40 ligand-mediated proliferation of cancer cells [5]: inhibiting in vitro CD40 ligand-mediated proliferation of cancer cells from NHL and CLL patients
- cleaved PARP, caspase-3 and Bcl-xl, dose response (Western blot) ([6]; 0-20 μg/ml, 22-24 hours, 1 μg/ml sCD40L): induction of cleaved PARP and caspase-3 as well as reduction of Bcl-xl in a dose-dependent manner
- lowest dose with effect on cleaved PARP, caspase-3 and Bcl-xl ([6]; 22-24 hours, 1 μg/ml sCD40L): ≥ 0.01 µg/mL
- XIAP and Bcl-2 (Western blot) ([6]; patient #30, vs control IgG): reduced the expression of XIAP and Bcl-2
- cleaved PARP (Western blot) ([6]; patient #30, vs control IgG): induced the expression of cleaved PARP
- cleaved PARP (Western blot) ([6]; patient #31, vs control IgG): induced the expression of cleaved PARP
- cyclin D1 and Bcl-xl (Western blot) ([6]; patient #31, vs control IgG): reduced the expression of cyclin D1 and Bcl-xl
- Bcl-2 and TRAIL level (Western blot) [6, 16]: no changes of Bcl-2 and TRAIL level
- Bcl-xl, XIAP and cIAP1 (Western blot) [6, 16]: reduction of Bcl-xl, XIAP and cIAP1
- cleaved PARP (Western blot) ([6]; patients #4 and #21, 10 μg/ml, 24 hours, 1 μg/ml sCD40L, vs control IgG): induction of cleaved PARP
- phosphorylation of IKK α/β, ERK and Akt ([7]; 20 minutes, 1 μg/ml sCD40L, vs control IgG): significant inhibition of phosphorylation of IKK α/β, ERK, and Akt
- p38 MAPK activation ([7]; samples with constitutively activated p38 MAPK): did not significantly inhibit p38 MAPK activation
- apoptosis without CD40L stimulation (cleaved PARP, XIAP) [8]: did not trigger additional apoptosis of B-CLL cells
- percentage of cells positive for cleaved PARP or TUNEL [9]: the percentage of positive cells for cleaved PARP or TUNEL returned to the levels seen without sCD40L stimulation
- Phospho-IKKα/β activation by CD40L ([10]; 10 μg/mL): inhibited
- p38 activation by CD40L ([10]; SB203580 30 and 60 μM, CHIR-12.12 10 μg/mL): fully inhibited
- CD40 expression [11]: inhibited
- cleaved Caspase-3 ([11]; CD40L): induced to a lesser extent
- p38 phosphorylation ([11]; CD40L): similarly blocked
- cleaved-PARP ([11]; SB203580 30 and 60 μM, CHIR-12.12 10 μg/mL, CD40L): significantly induced
- Bcl-xl expression ([11]; especially 60 μM SB203580 and 10 μg/ml CHIR-12.12): blocked
- p-p38 levels [12]: lowered p-p38 levels back to basal phosphorylation
- Ki67+ proliferating cells (histology) ([13]; 5 days after a single dose): significantly reduced the number of Ki67^+ proliferating cells
- cleaved caspase 3 and cleaved PARP (histology) ([13]; 5 days after a single dose): increased the level of cleaved caspase 3 and cleaved PARP
- tumor growth ([13]; first study, CHIR-12.12 1 and 10 mg/kg i.p. days 5, 12, 18, bortezomib 1 mg/kg i.v. days 5, 8, 12, 15): inhibited tumor growth at 15, 18, and 21 days post tumor implantation
- tumor volume, CHIR-12.12 in combination with bortezomib ([13]; second study, CHIR-12.12 1 mg/kg i.p. plus bortezomib 1 mg/kg i.v.): the efficacy observed was additive; also recorded: a tumor volume reduction was observed on days 13, 16, 20, 23, and 26
- CD40L-induced production of VEGF [14]: inhibit CD40L-induced production of VEGF
- blockade of CD40L-promoted survival [15]: in each case, these effects were blocked

— patent US8337851B2, “Methods of monitoring the efficacy of anti-CD40 antibodies in treating a subject for a CD40-expressing cancer” (Novartis AG, priority 2005, dated 2012)
